Assay results as given in PubChem BioAssay AID248 (DTP/NCI, 2004).
Several values for one entry are separate records, joined by “and”; a condition that tells them apart may be missing. Equal entries are not always repeated. Inconclusive results and toxic doses are left out.

Tested on: L1210 leukemia ip in BDF1 mice, survival T/C
Assay: NCI In Vivo Anticancer Drug Screen. Data for tumor model L1210 Leukemia (intraperitoneal) in B6D2F1 (BDF1) mice
Details: endpoint: mean survival time, higher = longer survival
Procedure, shortened: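 Ratio derived from survival: compound-dosed mice over vehicle-dosed mice, all bearing a transplantable tumor.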

[1] = dose: 100.0 mg/kg/injection, schedule: Q01DX001 (ip), vehicle: saline
[2] = dose: 200.0 mg/kg/injection, schedule: Q01DX001 (ip), vehicle: saline
[3] = dose: 400.0 mg/kg/injection, schedule: Q01DX001 (ip), vehicle: saline

Structure (SMILES): C=CCSc1ncnc2c1ncn2C1OC(CO)C(O)C1O (centres undefined)
- T/C (dose: 25.0 mg/kg/injection, schedule: Q01DX Z (ip), vehicle: saline): 109 % of control and 120 % of control
- T/C (dose: 30.0 mg/kg/injection, schedule: Q01DX Z (ip), vehicle: saline): 106 % of control
- T/C (dose: 45.0 mg/kg/injection, schedule: Q01DX Z (ip), vehicle: saline): 108 % of control
- T/C (dose: 78.0 mg/kg/injection, schedule: Q01DX001 (ip), vehicle: carboxymethylcellulose (CMC)): 112 % of control
- T/C (dose: 99.0 mg/kg/injection, schedule: Q01DX Z (ip), vehicle: saline): 162 % of control
- T/C (dose: 100.0 mg/kg/injection, schedule: Q01DX001 (ip), vehicle: carboxymethylcellulose (CMC)): 115 % of control
- T/C (dose: 100.0 mg/kg/injection, schedule: Q01DX Z (ip), vehicle: saline): 166 % of control
- T/C (dose: 118.0 mg/kg/injection, schedule: Q01DX001 (ip), vehicle: carboxymethylcellulose (CMC)): 123 % of control
- T/C (dose: 151.0 mg/kg/injection, schedule: Q01DX Z (ip), vehicle: saline): 170 % of control and 181 % of control
- T/C (dose: 200.0 mg/kg/injection, schedule: Q01DX009 (ip), vehicle: carboxymethylcellulose (CMC)): 93 % of control
- T/C (dose: 200.0 mg/kg/injection, schedule: Q01DX Z (ip), vehicle: saline): 150 % of control
- T/C (dose: 266.0 mg/kg/injection, schedule: Q01DX001 (ip), vehicle: carboxymethylcellulose (CMC)): 150 % of control
- T/C (dose: 300.0 mg/kg/injection, schedule: Q01DX Z (ip), vehicle: saline): 96 % of control
- T/C (dose: 338.0 mg/kg/injection, schedule: Q01DX Z (ip), vehicle: saline): 111 % of control

Structure (SMILES): Cc1ccc(NC(=O)NCCCl)c2c1CCC2
- T/C (dose: 100.0 mg/kg/injection, schedule: Q01DX001 (ip), vehicle: Klucel (hydroxypropylcellulose) (HPC)): 95 % of control
- T/C (dose: 200.0 mg/kg/injection, schedule: Q01DX001 (ip), vehicle: Klucel (hydroxypropylcellulose) (HPC)): 92 % of control
- T/C (dose: 400.0 mg/kg/injection, schedule: Q01DX001 (ip), vehicle: Klucel (hydroxypropylcellulose) (HPC)): 96 % of control

Structure (SMILES): N=c1c2ccccc2c2ccccc2n1O
- T/C (dose: 100.0 mg/kg/injection, schedule: Q04DX003 (ip), vehicle: saline with Tween-80): 96 % of control
- T/C (dose: 200.0 mg/kg/injection, schedule: Q04DX003 (ip), vehicle: saline with Tween-80): 98 % of control
- T/C (dose: 400.0 mg/kg/injection, schedule: Q04DX003 (ip), vehicle: saline with Tween-80): 103 % of control

Structure (SMILES): CC[CH2][Sn]([CH2]CC)([CH2]CC)[CH2]Cc1ccncc1
- T/C (dose: 6.25 mg/kg/injection, schedule: Q04DX002 (ip), vehicle: saline with Tween-80): 101 % of control
- T/C (dose: 12.5 mg/kg/injection, schedule: Q04DX002 (ip), vehicle: saline with Tween-80): 93 % of control
- T/C (dose: 25.0 mg/kg/injection, schedule: Q04DX002 (ip), vehicle: saline with Tween-80): 89 % of control

Structure (SMILES): O=C1C=CC(=Nc2ccc3c(c2)C(Br)c2ccccc2-3)O1 (centres undefined)
- T/C (dose: 3.12 mg/kg/injection, schedule: Q04DX003 (ip), vehicle: saline): 100 % of control
- T/C (dose: 4.5 mg/kg/injection, schedule: Q01DX009 (ip), vehicle: saline): 102 % of control
- T/C (dose: 6.25 mg/kg/injection, schedule: Q04DX003 (ip), vehicle: saline): 105 % of control
- T/C (dose: 9.0 mg/kg/injection, schedule: Q01DX009 (ip), vehicle: saline): 95 % of control
- T/C (dose: 12.5 mg/kg/injection, schedule: Q01DX001 (ip), vehicle: acetone): 100 % of control
- T/C (dose: 12.5 mg/kg/injection, schedule: Q04DX003 (ip), vehicle: saline): 103 % of control
- T/C (dose: 18.0 mg/kg/injection, schedule: Q04DX003 (ip), vehicle: saline): 98 % of control

Structure (SMILES): O=C(Nc1cccc(Cl)c1Cl)Oc1ccc(OCc2ccccc2)cc1
- T/C (dose: 100.0 mg/kg/injection, schedule: Q01DX009 (ip), vehicle: Klucel (hydroxypropylcellulose) (HPC)): 87 % of control
- T/C (dose: 400.0 mg/kg/injection, schedule: Q01DX009 (ip), vehicle: Klucel (hydroxypropylcellulose) (HPC)): 95 % of control

Structure (SMILES): O=C1CCCCC(=O)OCCC1
- T/C [1]: 93 % of control
- T/C [2]: 98 % of control
- T/C [3]: 88 % of control

Structure (SMILES): O=C(Cc1ccccn1)c1ccccc1
- T/C (dose: 100.0 mg/kg/injection, schedule: Q04DX003 (ip), vehicle: Klucel (hydroxypropylcellulose) (HPC)): 96 % of control
- T/C (dose: 200.0 mg/kg/injection, schedule: Q04DX003 (ip), vehicle: Klucel (hydroxypropylcellulose) (HPC)): 96 % of control
- T/C (dose: 400.0 mg/kg/injection, schedule: Q04DX003 (ip), vehicle: Klucel (hydroxypropylcellulose) (HPC)): 92 % of control

Structure (SMILES): O=C1/C(=C/c2ccc(Cl)cc2)CCc2ccccc21
- T/C [1]: 101 % of control
- T/C (dose: 100.0 mg/kg/injection, schedule: Q01DX009 (ip), vehicle: saline): 97 % of control
- T/C [2]: 101 % of control
- T/C (dose: 200.0 mg/kg/injection, schedule: Q01DX009 (ip), vehicle: saline): 96 % of control
- T/C [3]: 97 % of control
- T/C (dose: 400.0 mg/kg/injection, schedule: Q01DX009 (ip), vehicle: saline): 86 % of control
